Results published in patent US20180105492A1, “COMPOUNDS DERIVED FROM 3-ALKYLAMINE-1H-INDOLYL ACRYLATE AND THEIR USE IN THE TREATMENT OF NEURODEGENERATIVE DISEASES” (FUNDACION PARA LA INVESTIGACION BIOMEDICA DEL HOSPITAL …, priority 2014, published 2018).

What was measured:
Type in all cases: cell-based
SH-SY5Y cells [1] = experiment: Neuroprotection against rotenone/oligomycin A, pre-incubation model, MTT; details: Homo sapiens, compound 1 μM pre-incubation 24 h, then Rot/Olig (30/10 μM); for viability at 1 µM: read-out: % Survival
Procedure: (§1) SH-SY5Y cells [ECACC 94030304], in 5 to 16 passage after defreezing were maintained in Eagle media modified by Dulbecco (DMEM) containing 15 non-essential amino acids and supplemented with 10% fetal bovine serum, 1 mM glutamine, 50 units/mL penicillin/streptomycin (obtained from GIBCO, Madrid, Spain). Cells were seeded in flasks containing supplemented media and were maintained in an incubator at 37° C. and 5% CO2. 1:4 passes were performed twice per week. For the experiments, cells were seeded in 24 well-plates at a density of 2×10^5 cells/well, or in 96 well-plates at a density of 8×10^4 cells/well. For cytotoxicity experiments, cells were treated with the compounds before confluence with DMEM media supplemented with fetal bovine serum 1%.
(§2) In order to assess cellular viability, we measured the metabolic reduction of 3-(4,5-Dimethylthiazol-2-yl)-2,5 diphenyltetrazolium bromide (MTT). MTT is an indirect assay to measure cellular viability. It is a colorimetric method based on the reduction of 3-(4,5-Dimethylthiazol-2-yl)-2,5 diphenyltetrazolium. This process is performed by the mitochondrial enzyme succinate-dehydrogenase present in metabolic active cells. Thus, the water-soluble yellow MTT (tetrazolium salt) is transformed into a insoluble purple compound (formazan). Quantity of living cells is directly proportional to the quantity of formazan (Mosmann, 1983, J Immunol Methods, 65: 55-63). […] Therefore, with this assay we can measure cellular surviving and proliferation and also, we can determine the cytotoxicity of potential neuroprotective compounds. In order to assess cellular viability in SH-SY5Y cell line, we added 30 μl/well of MTT (5 mg/mL) and after 2 h, medium was carefully removed to avoid losing the formazan and was diluted in 300 μL of DMSO. Afterwards, samples were transferred to a 96 well-plate and the absorbance was measured at 570 nm using a absorbance/fluorescence reader FluoStar optima®. Every MTT assay was performed in triplicates. Absorbance values obtained with the toxic alone were subtracted to the absorbance values obtained in basal conditions (without treatment). That result was considered as the 100% of cell death and the values obtained with the compounds in the presence of the toxic stimulus were normalized as percentages of that value. For determining the surviving percentage, those percentages of cell death were subtracted to 100.
(§3) Neuroprotection elicited by the compounds of the invention 1-16: The activation of Nrf2-ARE pathway by different compounds exerts neuroprotective effects against toxic models based on oxidative stress via the expression of cytoprotective genes. […] We evaluated the neuroprotective potential of the compounds using the human neuroblastoma cell line using the following cytotoxicity models: 1) oxidative stress induced by rotenone+oligomycin, both blockers of the electron transport chain as previously described (Halliwell, 1992, J Neurochem, 59: 1609-23, Newhouse y col., 2004, Toxicol Sci, 79: 137-46), and 2) cytotoxicity induced by the electrophilic compound Menadione. This compound produces oxidative stress after being metabolized by microsomal enzymes in the cell which produces hydroxyl radical and oxygen reactive species. As a consequence, there is a depolarization of mitochondrial membrane generating a release of apoptotic factors such as cytochrome c, and activating the caspase cascade (Loor y col., 2010, Free Radic Biol Med, 49: 1925-36, Chuang y col., 2002, Cancer Res, 62: 6246-54). Caspase 3 activation can produce the lysis of proteins and induce DNA fragmentation, leading to cell death (Gerasimenko y col., 2002, J Cell Sci, 115: 485-97).
For this study we propose a protocol in which the cells are pre-incubated with each of the derivatives at 1 μM for 24 h. After the pre-incubation period, the medium was removed and replaced by culture medium with the rotenone/oligomycin-A (30 μM and 10 μM, respectively) toxic mixture. […]

SH-SY5Y cells [2] = experiment: Neuroprotection against oxidative stress induced by menadione, pre- and co-incubation, MTT; details: Homo sapiens, 24 h, compound 1 μM pre- and co-incubation, Menadione (8 mM); for viability at 1 µM: read-out: % Survival
Procedure: as §1, §2, §3
To further confirm the neuroprotective capacity in another model of oxidative stress, menadione was selected as toxic stimulus. […]

[3] = test system: Nrf2 transcription factor (Nrf2-ARE); experiment: Nrf2-ARE induction, luciferase activity in AREc32 (MCF7 cells stably transfected with ARE-LUC); details: Homo sapiens, 24 h, basal = 1, read-out: Relative Luciferase activity (response versus basal)
Procedure: For the study of Nrf2 transcription factor, the cellular line AREC32 was used, which is characterized for being stably transfected with the reporter gene of Luciferase linked to the ARE sequence. In the presence electrophilic compounds or oxidative stress, Nrf2 factor binds to ARE sequences, activating luciferase expression and producing a proportional quantity of luciferase. The AREc32 cells were cultured in DMEM media with glutamax, supplemented with 10% fetal bovine serum (FBS), 1% penicillin-streptomycin and 1.6% geneticine (G418) (obtained from GIBCO, Madrid, Spain). Cells were cultured in 75 cm flasks with 11 mL of specific media, incubated at 37° C. and 5% of CO2. Cells were passed every 4-6 days (1:4), whenever the confluence reached 80%. For the experiments, cells were cultured in transparent surface 96 well plates at a density of […] with 100 μL/well. After 24 h in culture, cells were treated with the compounds at different concentrations (1, 10, 30 and 60 μM) during 24 h at 37° C. and 5% CO2. In every experiment it was also included a basal variable, a variable with 10 μM tert-butyl hydroquinone (TBHQ) (positive control) and the variables of the study in a final volume of 100 μL. After an incubation of 24 h with the compounds, luciferase activity was measured by bioluminescence using the commercial kit “Luciferase assay system” (Promega E1500). For that, treatments were removed and cells were washed with 100 μL of PBS 0.1 M. After washing, 20 μL of “lysis buffer” reactive was added to each well. 10 minutes later, luminescence was measured using the multi-well reader FluoStar optima (BMG labtech).
Luminescence was measured in arbitrary units and is directly proportional to luciferase quantity in the wells, which is also directly proportional to Nrf2 transcription factor induction by the specific compound at the established concentration. Measurements were made in duplicate and values were normalized to the basal luminescence value, considered as 1.
The results of Nrf2 induction obtained for the compounds 1 to 16 are shown in Table 1 and are expressed as induction, considering 1 the non-treated cells.

Row | SMILES | percent protection against toxin-induced cell death at 1 µM (SH-SY5Y cells [1]) [%] | viability at 1 µM (SH-SY5Y cells [1]) [%] | % protection against menadione toxicity at 1 µM (SH-SY5Y cells [2]) [%] | viability at 1 µM (SH-SY5Y cells [2]) [%] | fold induction at 10 µM [3] | fold induction at 30 µM [3] | fold induction at 60 µM [3]
1 | C/C=C/C(=O)Oc1ccc2[nH]cc(CCNC(C)=O)c2c1 [Compound 1, 3-(2-acetamidoethyl)-1H-indol-5-yl (E)-2-butenoate] | 28.5 | 70.4 ± 4.03 | 63.3 | 87.7 ± 1.74 | 2.34 ± 0.2 | 12.1 ± 1.3 | 30.7 ± 1.7
2 | CC(=O)NCCc1c[nH]c2ccc(OC(=O)/C=C/c3ccccc3)cc12 [Compound 2, 3-(2-acetamidoethyl)-1H-indol-5-yl cinnamate] | 34.7 | 72.7 ± 3.59 | 32.5 | 74 ± 3.18 | 1.63 ± 0.2 | 1.78 ± 0.1 | 2.54 ± 0.3
3 | CC(=O)NCCc1c[nH]c2ccc(OC(=O)/C=C/c3ccc(C)cc3)cc12 [Compound 3, 3-(2-acetamidoethyl)-1H-indol-5-yl (E)-3-(4-methylphenyl)acrylate] | 20.5 | 67 ± 3.21 | 25 | 71.4 ± 2.43 | 1.26 ± 0.1 | 2.03 ± 0.1 | 3.26 ± 0.3
4 | COc1ccccc1/C=C/C(=O)Oc1ccc2[nH]cc(CCNC(C)=O)c2c1 [Compound 4, 3-(2-acetamidoethyl)-1H-indol-5-yl (E)-3-(2-methoxyphenyl)acrylate] | 19 | 67.1 ± 2.61 | 67.1 | 90.5 ± 1.97 | 1.67 ± 0.1 | 2.01 ± 0.1 | 2.53 ± 0.1
5 | COc1cccc(/C=C/C(=O)Oc2ccc3[nH]cc(CCNC(C)=O)c3c2)c1 [Compound 5, 3-(2-acetamidoethyl)-1H-indol-5-yl (E)-3-(3-methoxyphenyl)acrylate] | 27.1 | 70.2 ± 2.42 | 38.1 | 76 ± 3.31 | 1.39 ± 0.1 | 1.63 ± 0.2 | 2.09 ± 0.2
6 | COc1ccc(/C=C/C(=O)Oc2ccc3[nH]cc(CCNC(C)=O)c3c2)cc1 [Compound 6, 3-(2-acetamidoethyl)-1H-indol-5-yl (E)-3-(4-methoxyphenyl)acrylate] | 29.8 | 70 ± 3.04 | 35.8 | 74.7 ± 2.91 | 2.02 ± 0.2 | 3.4 ± 0.3 | 4.62 ± 0.4
7 | CC(=O)NCCc1c[nH]c2ccc(OC(=O)/C=C/c3ccc(O)cc3)cc12 [Compound 7, 3-(2-acetamidoethyl)-1H-indol-5-yl (E)-3-(4-hydroxyphenyl)acrylate] | 32.5 | 71.5 ± 4.92 | 61.8 | 86.8 ± 3.24 | 0.95 ± 0.1 | 1.09 ± 0.1 | 1.57 ± 0.1
8 | COc1cc(/C=C/C(=O)Oc2ccc3[nH]cc(CCNC(C)=O)c3c2)ccc1O [Compound 8, 3-(2-acetamidoethyl)-1H-indol-5-yl (E)-3-(4-hydroxy-3-methoxyphenyl)acrylate] | 37 | 74 ± 3.13 | 69.4 | 89.9 ± 1.86 | 1.11 ± 0.1 | 1.83 ± 0.1 | 2.36 ± 0.1
9 | CC(=O)NCCc1c[nH]c2ccc(OC(=O)/C=C/c3ccc(F)cc3)cc12 [Compound 9, 3-(2-acetamidoethyl)-1H-indol-5-yl (E)-3-(4-fluorophenyl)acrylate] | 21.5 | 67.4 ± 2.13 | 29.6 | 71.6 ± 3.74 | 1.92 ± 0.2 | 2.27 ± 0.2 | 4.21 ± 0.6
10 | CC(=O)NCCc1c[nH]c2ccc(OC(=O)/C=C/c3ccc(Br)cc3)cc12 [Compound 10, 3-(2-acetamidoethyl)-1H-indol-5-yl (E)-3-(4-bromophenyl)acrylate] | 30.2 | 71.1 ± 2.61 | 27.6 | 72.4 ± 3.75 | 1.53 ± 0.2 | 3.12 ± 0.5 | 13.3 ± 2.1
11 | CC(=O)NCCc1c[nH]c2ccc(OC(=O)/C=C/c3ccc(Cl)cc3)cc12 [Compound 11, 3-(2-acetamidoethyl)-1H-indol-5-yl (E)-3-(4-chlorophenyl)acrylate] | 33.5 | 73.2 ± 3.12 | 57 | 85.7 ± 2.93 | 1.18 ± 0.1 | 1.59 ± 0.2 | 3.55 ± 0.9
12 | CC(=O)NCCc1c[nH]c2ccc(OC(=O)/C=C/c3ccc(Cl)c(Cl)c3)cc12 [Compound 12, 3-(2-acetamidoethyl)-1H-indol-5-yl (E)-3-(3,4-dichlorophenyl)acrylate] | 25.3 | 70.1 ± 4.35 | 59.3 | 86.5 ± 3.04 | 1.16 ± 0.1 | 1.43 ± 0.1 | 2.12 ± 0.2
13 | COc1ccc2[nH]cc(CCNC(C)=O)c2c1 [Melatonin, reference compound] | 31.6 | 71.8 ± 2.81 | 37.4 | 72.9 ± 5.24 |  |  | 
